Results reported in PubChem BioAssay AID720588 (Broad Institute, 2013).
Calls of active or inactive are those of the source.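 Rule for the calls: active = fitted curve falls past a set limit of signal loss at no more than twice the top dose; inconclusive = flat fit between 30 and 70% signal loss, or poor fit; inactive = signal rise, flat within 30%, or crossing too high.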

Assay: ATP-based viability loss in HEK293T cells – cell-based, CellTiter-Glo luminescence, cherry-pick, set 3, cytotoxicity control, dose response (AID 720588)
Settings: HEK293T viability, CellTiter-Glo ATP luminescence, 72 h

For `COc1ccc(C(=O)NCCNc2nc3cc(C)cc(C)c3cc2C#N)c(OC)c1`, the activity change, negative = cytotoxicity (at 26 µM (top of the series)) was -16.7% (inactive).

In the case of `COC(=O)COc1ccc(-c2nccc(-c3ccccn3)n2)cc1`, the activity change, negative = cytotoxicity (at 26 µM (top of the series)) is reported as 19.3% (inactive).

With `CC(C)(C)c1ccc(Oc2ccc(N)cn2)cc1` the activity change, negative = cytotoxicity (at 26 µM (top of the series)) was -15.7% (inactive).

With `C[C@@H]1CN([C@@H](C)CO)C(=O)Cc2cc(NC(=O)Cn3cnnn3)ccc2O[C@@H]1CN(C)Cc1ccc(Oc2ccccc2)cc1` the activity change, negative = cytotoxicity (at 26 µM (top of the series)) was 14.3% (inactive).

For `Nc1ccc(-c2cc3ccccc3oc2=O)cc1`, the activity change, negative = cytotoxicity (at 26 µM (top of the series)) was -22% (inactive).

With `COc1cccc(OC)c1C(=O)Nc1cc(C)nn1-c1nc2ccccc2[nH]1` the activity change, negative = cytotoxicity (at 26 µM (top of the series)) was -11.9% (inactive).

With `CCc1ccc(/C=C2\SC(=S)N(CCC(=O)Nc3cc(C)on3)C2=O)cc1` the activity change, negative = cytotoxicity (at 26 µM (top of the series)) was 5.29% (inactive).

In the case of `O=C(C[C@@H]1C[C@H]2c3cc(NC(=O)CC4CC4)ccc3O[C@H]2[C@H](CO)O1)NCc1ccccc1F`, the activity change, negative = cytotoxicity (at 26 µM (top of the series)) is reported as 13.3% (inactive).

With `c1ccc(-c2ccc([C@H]3[C@H]4CNC[C@@H]3N4Cc3cc(-c4ccccc4)on3)cc2)cc1` the activity change, negative = cytotoxicity (at 26 µM (top of the series)) was 26.6% (inactive).

In the case of `CCNC(=O)[C@@H]1[C@@H](CO)[C@@H]2Cn3c(ccc(C4=CCCCC4)c3=O)[C@H]1N2CC`, the activity change, negative = cytotoxicity (at 26 µM (top of the series)) is reported as -16.5% (inactive).

For `COc1cccc(CN2CCC2(C)C(=O)Nc2cccc3cccnc23)c1F` (stereo unspecified), the activity change, negative = cytotoxicity (at 26 µM (top of the series)) was -6.02% (inactive).

For `CCNC(=O)c1cc2c(c(-c3cccc(-c4cccc(OC)c4)c3)n1)[C@H](CCO)N([S@@](=O)C(C)(C)C)C2`, the activity change, negative = cytotoxicity (at 26 µM (top of the series)) was -17.3% (inactive).

With `COC(=O)C[C@@H]1CC[C@@H]2[C@@H](COc3ccc(NC(=O)Nc4cccc(C#N)c4)cc3C(=O)N2C)O1` the activity change, negative = cytotoxicity (at 26 µM (top of the series)) was 16.9% (inactive).

With `c1cncc(-c2ccc([C@@H]3[C@H]4CNC[C@@H]3N4CC3CCOCC3)cc2)c1` the activity change, negative = cytotoxicity (at 26 µM (top of the series)) was 61.9% (inactive).

For `Nc1nc(N)c2c(ccc3nccc32)[nH]1`, the activity change, negative = cytotoxicity (at 26 µM (top of the series)) was -30.1% (inactive).

For `C[C@@H]1CCCCO[C@H](CN(C)Cc2ccc(C(=O)Nc3ccccc3N)cc2)[C@@H](C)CN([C@@H](C)CO)C(=O)c2cc(NS(=O)(=O)c3ccc(Cl)cc3)ccc2O1`, the activity change, negative = cytotoxicity (at 26 µM (top of the series)) was -25.9% (inactive).

For `COC(=O)C[C@H]1CC[C@H]2[C@@H](COc3ccc(NC(=O)Nc4cccc(Cl)c4)cc3C(=O)N2C)O1`, the activity change, negative = cytotoxicity (at 26 µM (top of the series)) was -24.3% (inactive).

In the case of `COc1ccc(CN(C)c2ncnc3sccc23)c(OC)c1OC`, the activity change, negative = cytotoxicity (at 26 µM (top of the series)) is reported as -29.1% (inactive).

In the case of `C[C@@H]1CN([C@@H](C)CO)S(=O)(=O)c2ccc(C#Cc3ccncc3)cc2O[C@H]1CN(C)C(=O)C1CCOCC1`, the activity change, negative = cytotoxicity (at 26 µM (top of the series)) is reported as 19.2% (inactive).

With `COC(=O)C[C@@H]1CC[C@@H]2[C@H](COc3ccc(NC(=O)Nc4ccc(C#N)cc4)cc3C(=O)N2C)O1` the activity change, negative = cytotoxicity (at 26 µM (top of the series)) was 46.8% (inactive).

With `Cc1ccc(/C=C/C(=O)N2CCN(S(=O)(=O)c3c(C)c(C)cc(C)c3C)CC2)o1` the activity change, negative = cytotoxicity (at 26 µM (top of the series)) was 16.1% (inactive).

For `CC(NC(=O)c1ccco1)c1nc(-c2ccc(C(C)(C)C)cc2)no1` (stereo unspecified), the activity change, negative = cytotoxicity (at 26 µM (top of the series)) was -23% (inactive).

For `O=C(Nc1ccc(OC(=O)N2CCCCC2)cc1)N1CCOCC1`, the activity change, negative = cytotoxicity (at 26 µM (top of the series)) was -2.87% (inactive).

For `N#C[C@H]1[C@H](c2ccc(C#Cc3ccccc3F)cc2)[C@@H](CO)N1C(=O)C1CCOCC1`, the activity change, negative = cytotoxicity (at 26 µM (top of the series)) was -4.64% (inactive).

With `CN(C)c1ncnc2c1ccn2C1OC(CO)C(O)C1O` (stereo unspecified) the activity change, negative = cytotoxicity (at 26 µM (top of the series)) was -37% (inactive).

With `O=C(Nc1ccc(NC(=O)c2cc3ccccc3o2)cc1)c1ccc2c(c1)OCCO2` the activity change, negative = cytotoxicity (at 26 µM (top of the series)) was 7.63% (inactive).

For `Cc1ccc2c(c1)C(=O)N1[C@H]3c4cc(Br)ccc4OC[C@@H]3[C@H](c3ccccc3)[C@]1(C)C(=O)N2`, the activity change, negative = cytotoxicity (at 26 µM (top of the series)) was -13.8% (inactive).

With `CCCc1cc(=O)oc2c3c(c4c(c12)OC(C)(C)C=C4)OC(C)C(C)C3O` (stereo unspecified) the activity change, negative = cytotoxicity (at 26 µM (top of the series)) was -7.17% (inactive).

With `COC(=O)C[C@@H]1CC[C@@H]2[C@@H](COc3ccc(NC(=O)Cc4cccs4)cc3C(=O)N2C)O1` the activity change, negative = cytotoxicity (at 26 µM (top of the series)) was -8.47% (inactive).

With `CC1=NC(=O)C(N=Nc2cccc(C(=O)O)c2)N1c1ccccc1` (stereo unspecified) the activity change, negative = cytotoxicity (at 26 µM (top of the series)) was -10% (inactive).

For `Cc1cc(-c2nc3ccccc3s2)ccc1N`, the activity change, negative = cytotoxicity (at 26 µM (top of the series)) was -28% (inactive).

For `Cc1c(Cl)cnc(NC(=O)COC(=O)c2ccc3ncsc3c2)c1Cl`, the activity change, negative = cytotoxicity (at 26 µM (top of the series)) was 13.6% (inactive).

With `N#C[C@H]1[C@H](c2ccc(-c3ccccc3F)cc2)[C@@H](CO)N1C(=O)c1ccccn1` the activity change, negative = cytotoxicity (at 26 µM (top of the series)) was -19.7% (inactive).

For `C=CCOc1ccccc1C(=O)/C=C1/C(=O)Nc2ccccc21`, the activity change, negative = cytotoxicity (at 26 µM (top of the series)) was -8.17% (inactive).

For `O=C1C(=O)N(Cc2cccs2)c2ccccc21`, the activity change, negative = cytotoxicity (at 26 µM (top of the series)) was -25.8% (inactive).

For `CC(Oc1cccc(Cl)c1)C(=O)NCCCCc1ccccc1` (stereo unspecified), the activity change, negative = cytotoxicity (at 26 µM (top of the series)) was -2.08% (inactive).

For `COC(=O)C[C@@H]1CC[C@@H]2[C@@H](COc3ccc(NC(=O)Nc4ccccc4C)cc3C(=O)N2C)O1`, the activity change, negative = cytotoxicity (at 23.5 µM (top of the series)) was 19.2% (inactive).

In the case of `CCN1CCN(/C=N/c2nc3c(s2)CCCC3)CC1`, the activity change, negative = cytotoxicity (at 26 µM (top of the series)) is reported as -6.91% (inactive).

In the case of `O=C(O)c1ccc(N/N=C/c2ccc(OC(=O)c3cccc(Cl)c3)cc2)cc1`, the activity change, negative = cytotoxicity (at 26 µM (top of the series)) is reported as -29.8% (inactive).

In the case of `O=C(NC1CCCC1)C(c1ccccc1)n1c(CSCCOc2ccccc2)nc2ccccc21` (stereo unspecified), the activity change, negative = cytotoxicity (at 26 µM (top of the series)) is reported as -14.3% (inactive).

With `Cc1cc(C)cc(C(=O)NC(=S)Nc2ccc(Cc3ccncc3)cc2)c1` the activity change, negative = cytotoxicity (at 26 µM (top of the series)) was -25.9% (inactive).

In the case of `COC(=O)C[C@@H]1CC[C@@H]2[C@H](COc3ccc(NC(=O)c4ccccc4)cc3C(=O)N2C)O1`, the activity change, negative = cytotoxicity (at 26 µM (top of the series)) is reported as 41.2% (inactive).

For `CN(C)c1ccc(N=Nc2ccc(C(=O)O)cc2)cc1`, the activity change, negative = cytotoxicity (at 26 µM (top of the series)) was -1.83% (inactive).

With `COC(=O)c1cccc(NC(=O)NC(=O)c2ccccc2Cl)c1` the activity change, negative = cytotoxicity (at 26 µM (top of the series)) was -19% (inactive).

For `CCOC(=O)c1c(-c2ccc(C)cc2)csc1NC(=O)CCN1CCOCC1`, the activity change, negative = cytotoxicity (at 26 µM (top of the series)) was 5.98% (inactive).

With `Cc1ccsc1C(=O)OCC(=O)c1cc(C)n(C)c1C` the activity change, negative = cytotoxicity (at 26 µM (top of the series)) was -19.5% (inactive).

In the case of `CCOc1ccc(/C=C2\CCc3ccccc3C2=O)cc1`, the activity change, negative = cytotoxicity (at 26 µM (top of the series)) is reported as -4.04% (inactive).

For `CC(=O)Nc1cc(C(=O)NCc2ccco2)ccc1Sc1ccc(F)cc1`, the activity change, negative = cytotoxicity (at 26 µM (top of the series)) was 12.1% (inactive).

With `Cc1cc(C(=O)CN2C(=O)c3ccccc3S2(=O)=O)c(C)n1C(C)C` the activity change, negative = cytotoxicity (at 26 µM (top of the series)) was 15.7% (inactive).

In the case of `CC1(C)Oc2cc3oc(-c4cc(O)cc(O)c4)cc3cc2CC1O` (stereo unspecified), the activity change, negative = cytotoxicity (at 26 µM (top of the series)) is reported as -1.31% (inactive).

With `COc1ccc(CCCNC(=O)C2Cc3c(-c4ccc5c(c4)OCO5)ccnc3O2)cc1` (stereo unspecified) the activity change, negative = cytotoxicity (at 26 µM (top of the series)) was -7% (inactive).

In the case of `C(=N\Nc1ccc2ccccc2n1)/c1ccc2c(c1)OCO2`, the activity change, negative = cytotoxicity (at 26 µM (top of the series)) is reported as -17.5% (inactive).

In the case of `COc1cc(/C=C/C(=O)/C=C(O)/C=C/c2ccc(O)c(OC)c2)ccc1O`, the activity change, negative = cytotoxicity (at 26 µM (top of the series)) is reported as -35.9% (inactive).

With `C[C@@H]1CN([C@@H](C)CO)C(=O)c2cccc(NC(=O)Nc3ccccc3)c2O[C@@H]1CN(C)Cc1ccc(-c2ccccc2)cc1` the activity change, negative = cytotoxicity (at 26 µM (top of the series)) was -22.7% (inactive).

With `COC(=O)C[C@H]1CC[C@H]2[C@H](COc3ccc(NC(=O)Nc4cccc(Cl)c4)cc3C(=O)N2C)O1` the activity change, negative = cytotoxicity (at 26 µM (top of the series)) was -28.3% (inactive).

With `C=CCn1c(O)c(N=Nc2ccccc2)c2ccccc21` the activity change, negative = cytotoxicity (at 26 µM (top of the series)) was 11.3% (inactive).
